Measured values as given in patent US9255090B2, “Heterocyclyl derivatives and their use as prostaglandin D2 receptor modulators” (Actelion Pharmaceuticals Ltd., priority 2012, dated 2016).

How the values were obtained:
[1] = tested on: eosinophils; test: Eosinophil shape change assay with human plasma; assay type: cell-based; settings: human plasma (50%), PGD2 100 nM activation, antagonistic activity
Text: Eosinophil Shape Change Assay with Human Plasma
After obtaining informed consent, blood samples were drawn by venipuncture according to the protocol approved by the ethics committee of Basel, Switzerland. Polymorphonuclear leukocytes (containing eosinophils, basophils and neutrophils) were isolated using the Polymorphprep™ method (Axis-Shield). […] The polymorphonuclear cell fraction was harvested and depleted for erythrocytes by hypotonic saline lysis.
The polymorphonuclear cells were resuspended in assay buffer (1×PBS with Ca^2+/Mg^2+ supplemented with 0.1% BSA, 10 mM HEPES, and 10 mM Glucose, pH 7.4) at 5×10^6 cells/ml and stained with anti-CD49d-APC ((APC=Allophycocyanin) for 1 hour at RT. Test compounds, at various concentrations, were preincubated 10 min in human plasma (anticoagulated with a thrombin inhibitor). Then, human plasma was added to the polymorphonuclear cells to 50% of final assay volume with polymorphonuclear cells at 4×10^6 cells/ml. After incubation for 10 minutes at 37° C., the polymorphonuclear cells were activated for 5 min at 37° C. by addition of PGD2 at 100 nM final concentration. Activation was stopped by addition of 0.5 ml paraformaldehyde (1%).
Immediately after fixation with paraformaldehyde, the samples were analyzed by FACSCanto flow cytometer (BD Biosciences) and target cells were identified by their forward-scatter (FSC) and side-scatter (SSC) characteristics. Eosinophils were identified by the anti-CD49d-APC signal and their characteristic side-scatter (SSC) profile. Shape change responses, indicative of eosinophil activation, were quantified as the percent of cells with an increased forward-scatter.

[2] = target: hCRTH2 receptor (Homo sapiens (Human), UniProt Q9Y5Y4); test: hCRTH2 receptor membranes radioligand (3H-PGD2) displacement assay; assay type: binding; settings: 3H-PGD2 radioligand displacement, HEK293-hCRTH2 membranes
hCRTH2 receptor, sequence (Q9Y5Y4 whole entry): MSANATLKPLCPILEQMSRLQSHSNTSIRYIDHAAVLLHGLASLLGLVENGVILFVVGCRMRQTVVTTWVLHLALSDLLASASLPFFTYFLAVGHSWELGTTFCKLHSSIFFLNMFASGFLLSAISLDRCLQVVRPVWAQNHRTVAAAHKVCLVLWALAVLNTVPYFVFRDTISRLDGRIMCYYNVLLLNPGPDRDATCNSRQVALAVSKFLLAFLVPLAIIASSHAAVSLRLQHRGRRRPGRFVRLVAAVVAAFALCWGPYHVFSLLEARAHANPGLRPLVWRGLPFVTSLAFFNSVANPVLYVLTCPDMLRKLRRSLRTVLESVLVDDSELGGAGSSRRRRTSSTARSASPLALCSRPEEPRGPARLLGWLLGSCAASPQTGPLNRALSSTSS
Outline: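 HEK293-hCRTH2 membranes, 20 μg/well; 3H-PGD2 added at 2.5 nM; binding buffer 50 mM Tris, 10 mM MnCl2, 1 mM EDTA, pH 7.0; 90 min RT; GF/C filtration, scintillation count. Nonspecific binding: PGD2 at […].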

| IC50 ([1]; Homo sapiens, Eosinophil) | IC50 [2] | IC50 [1] | SMILES |
| --- | --- | --- | --- |
| > 1 µM | 0.0151 µM | – | COc1ccc(CC(=O)O)cc1-c1ccc(F)c2c1CN(C(=O)NCc1ccc(F)cc1)CC2 [Example 132, {3-[5-Fluoro-2-(4-fluoro-benzylcarbamoyl)-1,2,3,4-tetrahydro-isoquinolin-8-yl]-4-methoxy-phenyl}-acetic acid] |
| 0.908 µM | 0.00542 µM | – | COc1ccc(CC(=O)O)cc1-c1ccc(F)c2c1CN(C(=O)OCc1cccc(F)c1)CC2 [Example 138, 8-(5-Carboxymethyl-2-methoxy-phenyl)-5-fluoro-3,4-dihydro-1H-isoquinoline-2-carboxylic acid 3-fluoro-benzyl ester] |
| 0.097 µM | 0.00253 µM | – | COc1ccc(CC(=O)O)cc1-c1ccc(F)c2c1CN(C(=O)OCc1ccc(F)cc1)CC2 [Example 139, 8-(5-Carboxymethyl-2-methoxy-phenyl)-5-fluoro-3,4-dihydro-1H-isoquinoline-2-carboxylic acid 4-fluoro-benzyl ester] |
| 0.266 µM | 0.00306 µM | – | COc1ccc(CC(=O)O)cc1-c1ccc(F)c2c1CN(C(=O)OCc1ccccc1F)CC2 [Example 146, 8-(5-Carboxymethyl-2-methoxy-phenyl)-5-fluoro-3,4-dihydro-1H-isoquinoline-2-carboxylic acid 2-fluoro-benzyl ester] |
| 0.622 µM | 0.00251 µM | – | COc1ccc(CC(=O)O)cc1-c1ccc(F)c2c1CN(C(=O)OCc1cccc(F)c1F)CC2 [Example 147, 8-(5-Carboxymethyl-2-methoxy-phenyl)-5-fluoro-3,4-dihydro-1H-isoquinoline-2-carboxylic acid 2,3-difluoro-benzyl ester] |
| 0.307 µM | 0.0059 µM | – | COc1ccc(CC(=O)O)cc1-c1ccc(Cl)c2c1CN(C(=O)OCc1ccccc1)CC2 [Example 154, 8-(5-Carboxymethyl-2-methoxy-phenyl)-5-chloro-3,4-dihydro-1H-isoquinoline-2-carboxylic acid benzyl ester] |
| 0.153 µM | 0.0117 µM | – | COc1ccc(CC(=O)O)cc1-c1ccc(F)c2c1CN(C(=O)OCc1ccccc1)CC2 [Example 157, 8-(5-Carboxymethyl-2-methoxy-phenyl)-5-fluoro-3,4-dihydro-1H-isoquinoline-2-carboxylic acid benzyl ester] |
| 0.17 µM | 0.00247 µM | – | O=C(O)COc1ccc(OC(F)(F)F)c(-c2ccc(F)c3c2CN(C(=O)OCc2ccccc2)CC3)c1 [Example 162, 8-(5-Carboxymethoxy-2-trifluoromethoxy-phenyl)-5-fluoro-3,4-dihydro-1H-isoquinoline-2-carboxylic acid benzyl ester] |
| 0.141 µM | 0.00794 µM | – | CC(C)Oc1ccc(OCC(=O)O)cc1-c1ccc(F)c2c1CN(C(=O)OCc1ccccc1)CC2 [Example 163, 8-(5-Carboxymethoxy-2-isopropoxy-phenyl)-5-fluoro-3,4-dihydro-1H-isoquinoline-2-carboxylic acid benzyl ester] |
| 0.117 µM | 0.0045 µM | – | COc1cc(CC(=O)O)ccc1-c1ccc(F)c2c1CN(C(=O)OCc1ccccc1)CC2 [Example 166, 8-(4-Carboxymethyl-2-methoxy-phenyl)-5-fluoro-3,4-dihydro-1H-isoquinoline-2-carboxylic acid benzyl ester] |
| 0.133 µM | 0.0179 µM | – | O=C(O)Cc1cc2c(c(-c3ccc(F)c4c3CN(C(=O)OCc3ccccc3)CC4)c1)OCCO2 [Example 168, 8-(7-Carboxymethyl-2,3-dihydro-benzo[1,4]dioxin-5-yl)-5-fluoro-3,4-dihydro-1H-isoquinoline-2-carboxylic acid benzyl ester] |
| 0.146 µM | 0.00917 µM | – | COc1ccc(CC(=O)O)cc1-c1ccc(C#N)c2c1CN(C(=O)OCc1ccccc1)CC2 [Example 169, 8-(5-Carboxymethyl-2-methoxy-phenyl)-5-cyano-3,4-dihydro-1H-isoquinoline-2-carboxylic acid benzyl ester] |
| 0.539 µM | 0.0213 µM | – | COc1ccc(OCC(=O)O)cc1-c1ccc(F)c2c1CN(C(=O)OCc1ccccc1)CC2 [Example 177, 8-(5-Carboxymethoxy-2-methoxy-phenyl)-5-fluoro-3,4-dihydro-1H-isoquinoline-2-carboxylic acid benzyl ester] |
| 0.034 µM | 0.00436 µM | – | COc1ccc(OCC(=O)O)cc1-c1ccc(F)c2c1CN(C(=O)[C@@H]1C[C@H]1c1ccccc1)CC2 [Example 182, {3-[5-Fluoro-2-((1R,2R)-2-phenyl-cyclopropanecarbonyl)-1,2,3,4-tetrahydro-isoquinolin-8-yl]-4-methoxy-phenoxy}-acetic acid] |
| 0.194 µM | 0.00046 µM | – | COc1cc(CC(=O)O)ccc1-c1ccc(F)c2c1CN(C(=O)CCc1cn(C)c3ccccc13)CC2 [Example 183, (4-{5-Fluoro-2-[3-(1-methyl-1H-indol-3-yl)-propionyl]-1,2,3,4-tetrahydro-isoquinolin-8-yl}-3-methoxy-phenyl)-acetic acid] |
| 0.097 µM | 0.00128 µM | – | COc1cc(CC(=O)O)ccc1-c1ccc(F)c2c1CN(C(=O)CCCc1ccccc1F)CC2 [Example 185, (4-{5-Fluoro-2-[4-(2-fluoro-phenyl)-butyryl]-1,2,3,4-tetrahydro-isoquinolin-8-yl}-3-methoxy-phenyl)-acetic acid] |
| 0.091 µM | 0.00089 µM | – | COc1cc(CC(=O)O)ccc1-c1ccc(F)c2c1CN(C(=O)CCCc1ccccc1)CC2 [Example 187, {4-[5-Fluoro-2-(4-phenyl-butyryl)-1,2,3,4-tetrahydro-isoquinolin-8-yl]-3-methoxy-phenyl}-acetic acid] |
| 0.008 µM | 0.00053 µM | – | COc1cc(CC(=O)O)ccc1-c1ccc(F)c2c1CN(C(=O)CC(C)(C)c1ccccc1)CC2 [Example 188, {4-[5-Fluoro-2-(3-methyl-3-phenyl-butyryl)-1,2,3,4-tetrahydro-isoquinolin-8-yl]-3-methoxy-phenyl}-acetic acid] |
| 0.062 µM | 0.00104 µM | – | COc1cc(CC(=O)O)ccc1-c1ccc(F)c2c1CN(C(=O)C[C@@H](C)c1ccccc1)CC2 [Example 189, {4-[5-Fluoro-2-((R)-3-phenyl-butyryl)-1,2,3,4-tetrahydro-isoquinolin-8-yl]-3-methoxy-phenyl}-acetic acid] |
| 0.094 µM | 0.00138 µM | – | COc1cc(CC(=O)O)ccc1-c1ccc(F)c2c1CN(C(=O)COCc1ccccc1Cl)CC2 [Example 193, (4-{2-[2-(2-Chloro-benzyloxy)-acetyl]-5-fluoro-1,2,3,4-tetrahydro-isoquinolin-8-yl}-3-methoxy-phenyl)-acetic acid] |
| 0.188 µM | 0.00075 µM | – | COc1cc(CC(=O)O)ccc1-c1ccc(F)c2c1CN(C(=O)CCc1ccccc1C)CC2 [Example 194, {4-[5-Fluoro-2-(3-o-tolyl-propionyl)-1,2,3,4-tetrahydro-isoquinolin-8-yl]-3-methoxy-phenyl}-acetic acid] |
| 0.021 µM | 0.00106 µM | – | CCOc1ccc(CC(=O)O)cc1-c1ccc(F)c2c1CN(C(=O)OCc1ccccc1)CC2 [Example 195, 8-(5-Carboxymethyl-2-ethoxy-phenyl)-5-fluoro-3,4-dihydro-1H-isoquinoline-2-carboxylic acid benzyl ester] |
| 0.024 µM | 0.00028 µM | – | CCCOc1ccc(CC(=O)O)cc1-c1ccc(F)c2c1CN(C(=O)OCc1ccccc1)CC2 [Example 197, 8-(5-Carboxymethyl-2-propoxy-phenyl)-5-fluoro-3,4-dihydro-1H-isoquinoline-2-carboxylic acid benzyl ester] |
| 0.019 µM | 0.00049 µM | – | COCCOc1ccc(CC(=O)O)cc1-c1ccc(F)c2c1CN(C(=O)OCc1ccccc1)CC2 [Example 199, 8-[5-Carboxymethyl-2-(2-methoxy-ethoxy)-phenyl]-5-fluoro-3,4-dihydro-1H-isoquinoline-2-carboxylic acid benzyl ester] |
| – | 0.0029 µM | 0.012 µM | CCOc1ccc(CC(=O)O)cc1-c1ccc(F)c2c1CN(C(=O)CC(C)c1ccccn1)CC2 (stereo not drawn) [Example 203, {4-Ethoxy-3-[5-fluoro-2-(3-pyridin-2-yl-butyryl)-1,2,3,4-tetrahydro-isoquinolin-8-yl]-phenyl}-acetic acid] |
| – | 0.0029 µM | 0.03 µM | CCOc1ccc(CC(=O)O)cc1-c1ccc(F)c2c1CN(C(=O)CC(C)c1ccccn1)CC2 (stereo not drawn) [Example 204, {4-Ethoxy-3-[5-fluoro-2-(3-pyridin-2-yl-butyryl)-1,2,3,4-tetrahydro-isoquinolin-8-yl]-phenyl}-acetic acid] |

| SMILES | IC50 ([1]; Homo sapiens, Eosinophil) | IC50 [2] | IC50 [1] |
| --- | --- | --- | --- |
| CC(C)COc1ccc(CC(=O)O)cc1-c1ccc(F)c2c1CN(C(=O)OCc1ccccc1)CC2 [Example 198, 8-(5-Carboxymethyl-2-isobutoxy-phenyl)-5-fluoro-3,4-dihydro-1H-isoquinoline-2-carboxylic acid benzyl ester] | 0.072 µM | 0.00128 µM | – |
